Results: the supplement of paper PMC8882468

Assays:
Assay in all cases: CTG-3D luminescence at 96 h relative to day-0 seeding control (ratio to day 0); higher = more growth / less cytotoxicity; PDxO 3D drug screen, 96 h, CTG-3D normalised to day-0 seeding control.
HCI-001 = system: HCI-001 (organoid from a triple-negative breast cancer xenograft)
HCI-002 = system: HCI-002 (organoid from a triple-negative breast cancer xenograft)
HCI-012 = system: HCI-012 (organoid from a breast cancer xenograft)
HCI-024 = system: HCI-024 (organoid from a breast cancer xenograft)

Nc1ccn([C@@H]2O[C@H](CO)[C@@H](O)C2(F)F)c(=O)n1 [gemcitabine]
CTG-3D luminescence at 96 h
Settings | 12.5 pM | 0.00025 µM | 0.005 µM | 0.1 µM | 1 µM | 10 µM | 100 µM | 625 fM
HCI-001, days in culture: 240 | 1.56 | 1.26 | 1.1 | 0.596 | 0.86 | 0.454 | 0.527 | 1.22
HCI-001, days in culture: 260 | 2.47 | 0.95 | 1.44 | 0.622 | 0.617 | 0.522 | 0.302 | 1.77
HCI-001, days in culture: 269 | 1.5 | 1.62 | 1.4 | 0.602 | 0.42 | 0.735 | 0.331 | 1.53
HCI-001, days in culture: 327 | 1.48 | 0.959 | 1.31 | 0.497 | 0.506 | 0.37 | 0.222 | 1.83
HCI-001, days in culture: 346 | 1.31 | 1.2 | 1.1 | 0.33 | 0.429 | 0.5 | 0.259 | 1.1
HCI-001, days in culture: 364 | 1.41 | 1.23 | 1.3 | 0.275 | 0.401 | 0.332 | 0.147 | 1.33
HCI-002, days in culture: 62 | 2.82 | 2.59 | 2.68 | 0.347 | 0.301 | 0.302 | 0.333 | 2.87
HCI-002, days in culture: 82 | 3.16 | 3.03 | 2.46 | 0.461 | 0.431 | 0.271 | 0.234 | 3.23
HCI-002, days in culture: 91 | 4.24 | 3.02 | 3.08 | 0.544 | 0.381 | 0.346 | 0.287 | 3.87
HCI-002, days in culture: 191 | 2.63 | 2.79 | 2.69 | 0.517 | 0.487 | 0.295 | 0.366 | 2.52
HCI-002, days in culture: 209 | 2.52 | 2.33 | 2.08 | 0.339 | 0.32 | 0.178 | 0.242 | 2.33
HCI-002, days in culture: 227 | 5.51 | 5.33 | 4.57 | 1.05 | 0.78 | 0.657 | 0.547 | 4.99
HCI-012, days in culture: 143 | 2.04 | 2.09 | 1.86 | 0.136 | 0.104 | 0.118 | 0.054 | 1.61
HCI-012, days in culture: 162 | 2.63 | 2.42 | 1.38 | 0.146 | 0.113 | 0.113 | 0.0256 | 2.7
HCI-012, days in culture: 201 | 2.68 | 1.42 | 1.5 | 0.0613 | 0.383 | 0.0794 | 0.0454 | 1.69
HCI-024, days in culture: 105 | 1.5 | 1.57 | 1.43 | 0.795 | 0.966 | 0.91 | 0.516 | 1.82
HCI-024, days in culture: 122 | 2.2 | 2.2 | 1.93 | 0.864 | 0.97 | 1.31 | 0.459 | 2.9
HCI-024, days in culture: 163 | 1.49 | 1.85 | 1.78 | 1.61 | 1.15 | 0.775 | 0.456 | 2
